According to US12479847B2 (DANA-FARBER CANCER INSTITUTE, INC., priority 2019, dated 2025):

Legend:
Assay in all cases: KINOMEscan (ScanMAX) kinase profiling
Format in all cases: binding
panel of 468 kinases [1] = target: T1, panel of 468 kinases (Homo sapiens, UniProt Q9UEE5); conditions: DRAK1; 1 μM; read-out: % control
T1 construct: purchased KINOMEscan (ScanMAX) service
T1 sequence (Q9UEE5 1-414): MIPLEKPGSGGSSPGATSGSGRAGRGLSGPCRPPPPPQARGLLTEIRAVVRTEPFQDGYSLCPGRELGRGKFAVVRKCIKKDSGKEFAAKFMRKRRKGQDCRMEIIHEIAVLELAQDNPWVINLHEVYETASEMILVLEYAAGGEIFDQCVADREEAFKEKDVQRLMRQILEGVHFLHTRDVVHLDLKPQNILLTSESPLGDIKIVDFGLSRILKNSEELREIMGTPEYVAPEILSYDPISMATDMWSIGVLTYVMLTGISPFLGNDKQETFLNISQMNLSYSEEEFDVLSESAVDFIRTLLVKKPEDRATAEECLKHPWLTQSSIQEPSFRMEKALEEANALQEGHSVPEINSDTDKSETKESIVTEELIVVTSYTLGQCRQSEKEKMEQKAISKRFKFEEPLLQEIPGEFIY

panel of 468 kinases [2] = target: T2, panel of 468 kinases (Homo sapiens, UniProt P42345); conditions: MTOR; 1 μM; read-out: % control
T2 construct: purchased KINOMEscan (ScanMAX) service

panel of 468 kinases [3] = target: T3, panel of 468 kinases (Homo sapiens, UniProt P57078); conditions: RIPK4; 1 μM; read-out: % control
T3 construct: purchased KINOMEscan (ScanMAX) service
T3 sequence (P57078 1-832): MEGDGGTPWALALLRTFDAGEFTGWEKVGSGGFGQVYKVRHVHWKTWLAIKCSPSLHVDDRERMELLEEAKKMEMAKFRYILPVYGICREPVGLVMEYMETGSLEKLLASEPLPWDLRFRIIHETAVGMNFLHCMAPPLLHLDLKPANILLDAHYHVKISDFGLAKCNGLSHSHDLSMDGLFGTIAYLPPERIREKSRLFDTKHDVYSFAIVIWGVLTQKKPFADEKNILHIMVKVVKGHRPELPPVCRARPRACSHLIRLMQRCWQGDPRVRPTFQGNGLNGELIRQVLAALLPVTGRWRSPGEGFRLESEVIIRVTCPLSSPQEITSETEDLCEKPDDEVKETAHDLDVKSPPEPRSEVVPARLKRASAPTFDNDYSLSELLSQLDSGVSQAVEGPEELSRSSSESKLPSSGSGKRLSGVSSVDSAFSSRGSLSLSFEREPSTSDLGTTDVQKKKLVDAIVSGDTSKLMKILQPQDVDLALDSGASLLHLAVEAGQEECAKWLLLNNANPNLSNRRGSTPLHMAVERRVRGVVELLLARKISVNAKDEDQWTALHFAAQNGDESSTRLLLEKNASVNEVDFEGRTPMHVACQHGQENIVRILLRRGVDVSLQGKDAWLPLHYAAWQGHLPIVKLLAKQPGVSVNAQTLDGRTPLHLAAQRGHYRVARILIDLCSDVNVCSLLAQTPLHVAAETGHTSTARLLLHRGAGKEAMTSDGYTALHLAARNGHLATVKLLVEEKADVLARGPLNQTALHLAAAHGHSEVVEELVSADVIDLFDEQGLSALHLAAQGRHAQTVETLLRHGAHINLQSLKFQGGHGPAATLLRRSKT

panel of 468 kinases [4] = target: T4, panel of 468 kinases (Homo sapiens, UniProt O94921); conditions: PFTK1; 1 μM; read-out: % control
T4 construct: purchased KINOMEscan (ScanMAX) service

panel of 468 kinases [5] = target: T5, panel of 468 kinases (Homo sapiens, UniProt Q14164); conditions: IKK-epsilon; 1 μM; read-out: % control
T5 construct: purchased KINOMEscan (ScanMAX) service
T5 sequence (Q14164 1-716): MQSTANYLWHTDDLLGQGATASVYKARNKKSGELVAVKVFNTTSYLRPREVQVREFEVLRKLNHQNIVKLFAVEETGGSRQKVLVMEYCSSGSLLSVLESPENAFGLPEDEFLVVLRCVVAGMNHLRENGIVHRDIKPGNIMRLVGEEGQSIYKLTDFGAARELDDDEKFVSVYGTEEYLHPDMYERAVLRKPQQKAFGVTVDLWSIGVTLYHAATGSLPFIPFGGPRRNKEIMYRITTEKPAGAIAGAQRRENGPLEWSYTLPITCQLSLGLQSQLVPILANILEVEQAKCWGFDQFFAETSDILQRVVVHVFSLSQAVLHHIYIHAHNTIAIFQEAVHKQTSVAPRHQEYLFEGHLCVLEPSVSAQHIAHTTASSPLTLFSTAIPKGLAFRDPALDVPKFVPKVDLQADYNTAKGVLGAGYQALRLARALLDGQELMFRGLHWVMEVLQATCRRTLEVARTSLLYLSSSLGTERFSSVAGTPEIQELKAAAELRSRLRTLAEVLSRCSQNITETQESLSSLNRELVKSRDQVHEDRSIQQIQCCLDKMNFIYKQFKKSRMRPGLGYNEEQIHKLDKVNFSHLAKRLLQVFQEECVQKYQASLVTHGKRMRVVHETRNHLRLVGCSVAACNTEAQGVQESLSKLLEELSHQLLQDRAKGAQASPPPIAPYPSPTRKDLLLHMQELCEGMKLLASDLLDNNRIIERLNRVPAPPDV

panel of 468 kinases [6] = target: T6, panel of 468 kinases (Homo sapiens, UniProt Q9H1R3); conditions: MYLK2; 1 μM; read-out: % control
T6 construct: purchased KINOMEscan (ScanMAX) service

panel of 468 kinases [7] = target: T7, panel of 468 kinases (Homo sapiens, UniProt P42684); conditions: ABL2; 1 μM; read-out: % control
T7 construct: purchased KINOMEscan (ScanMAX) service

panel of 468 kinases [8] = target: T8, panel of 468 kinases (Homo sapiens, UniProt Q6DT37); conditions: DMPK2; 1 μM; read-out: % control
T8 construct: purchased KINOMEscan (ScanMAX) service
T8 sequence (Q6DT37 whole entry): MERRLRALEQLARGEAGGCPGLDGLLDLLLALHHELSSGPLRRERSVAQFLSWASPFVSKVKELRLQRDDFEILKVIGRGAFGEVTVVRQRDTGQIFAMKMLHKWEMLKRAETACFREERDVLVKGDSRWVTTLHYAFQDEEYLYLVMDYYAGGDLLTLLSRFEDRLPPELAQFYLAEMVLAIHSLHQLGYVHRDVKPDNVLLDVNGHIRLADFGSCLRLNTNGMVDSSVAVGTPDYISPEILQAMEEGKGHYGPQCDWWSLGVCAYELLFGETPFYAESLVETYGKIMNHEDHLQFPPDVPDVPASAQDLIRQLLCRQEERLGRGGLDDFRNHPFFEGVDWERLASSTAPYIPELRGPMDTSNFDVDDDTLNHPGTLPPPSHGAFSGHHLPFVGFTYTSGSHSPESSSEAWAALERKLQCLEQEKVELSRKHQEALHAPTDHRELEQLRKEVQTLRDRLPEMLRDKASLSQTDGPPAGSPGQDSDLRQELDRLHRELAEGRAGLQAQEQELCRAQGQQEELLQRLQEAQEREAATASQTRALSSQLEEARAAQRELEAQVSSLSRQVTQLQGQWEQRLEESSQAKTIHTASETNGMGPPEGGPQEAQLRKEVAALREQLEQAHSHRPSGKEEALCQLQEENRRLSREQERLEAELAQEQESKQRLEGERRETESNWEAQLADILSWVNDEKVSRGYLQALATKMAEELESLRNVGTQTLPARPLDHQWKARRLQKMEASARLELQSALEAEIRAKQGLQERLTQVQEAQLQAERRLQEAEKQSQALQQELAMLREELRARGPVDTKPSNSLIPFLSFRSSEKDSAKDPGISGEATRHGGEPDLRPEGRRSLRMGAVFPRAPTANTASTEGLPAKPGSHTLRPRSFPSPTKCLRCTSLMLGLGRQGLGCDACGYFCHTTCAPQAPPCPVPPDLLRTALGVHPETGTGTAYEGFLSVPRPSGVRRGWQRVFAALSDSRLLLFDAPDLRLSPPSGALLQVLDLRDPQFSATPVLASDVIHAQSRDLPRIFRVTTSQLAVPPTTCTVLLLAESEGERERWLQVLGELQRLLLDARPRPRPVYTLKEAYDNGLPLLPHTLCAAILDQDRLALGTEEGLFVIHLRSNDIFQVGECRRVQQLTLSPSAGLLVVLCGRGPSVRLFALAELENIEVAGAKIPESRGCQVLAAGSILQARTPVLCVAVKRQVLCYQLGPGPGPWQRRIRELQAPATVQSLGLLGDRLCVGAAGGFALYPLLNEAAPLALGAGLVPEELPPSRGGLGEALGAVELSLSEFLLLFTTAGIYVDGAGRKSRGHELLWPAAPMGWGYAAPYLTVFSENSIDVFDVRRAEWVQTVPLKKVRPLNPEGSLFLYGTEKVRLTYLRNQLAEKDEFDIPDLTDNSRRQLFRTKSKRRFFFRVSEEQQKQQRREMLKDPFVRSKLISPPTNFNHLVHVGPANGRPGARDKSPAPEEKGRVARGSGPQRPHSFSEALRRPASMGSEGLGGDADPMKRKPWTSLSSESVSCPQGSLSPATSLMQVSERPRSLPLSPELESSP

T7 sequence (P42684 whole entry): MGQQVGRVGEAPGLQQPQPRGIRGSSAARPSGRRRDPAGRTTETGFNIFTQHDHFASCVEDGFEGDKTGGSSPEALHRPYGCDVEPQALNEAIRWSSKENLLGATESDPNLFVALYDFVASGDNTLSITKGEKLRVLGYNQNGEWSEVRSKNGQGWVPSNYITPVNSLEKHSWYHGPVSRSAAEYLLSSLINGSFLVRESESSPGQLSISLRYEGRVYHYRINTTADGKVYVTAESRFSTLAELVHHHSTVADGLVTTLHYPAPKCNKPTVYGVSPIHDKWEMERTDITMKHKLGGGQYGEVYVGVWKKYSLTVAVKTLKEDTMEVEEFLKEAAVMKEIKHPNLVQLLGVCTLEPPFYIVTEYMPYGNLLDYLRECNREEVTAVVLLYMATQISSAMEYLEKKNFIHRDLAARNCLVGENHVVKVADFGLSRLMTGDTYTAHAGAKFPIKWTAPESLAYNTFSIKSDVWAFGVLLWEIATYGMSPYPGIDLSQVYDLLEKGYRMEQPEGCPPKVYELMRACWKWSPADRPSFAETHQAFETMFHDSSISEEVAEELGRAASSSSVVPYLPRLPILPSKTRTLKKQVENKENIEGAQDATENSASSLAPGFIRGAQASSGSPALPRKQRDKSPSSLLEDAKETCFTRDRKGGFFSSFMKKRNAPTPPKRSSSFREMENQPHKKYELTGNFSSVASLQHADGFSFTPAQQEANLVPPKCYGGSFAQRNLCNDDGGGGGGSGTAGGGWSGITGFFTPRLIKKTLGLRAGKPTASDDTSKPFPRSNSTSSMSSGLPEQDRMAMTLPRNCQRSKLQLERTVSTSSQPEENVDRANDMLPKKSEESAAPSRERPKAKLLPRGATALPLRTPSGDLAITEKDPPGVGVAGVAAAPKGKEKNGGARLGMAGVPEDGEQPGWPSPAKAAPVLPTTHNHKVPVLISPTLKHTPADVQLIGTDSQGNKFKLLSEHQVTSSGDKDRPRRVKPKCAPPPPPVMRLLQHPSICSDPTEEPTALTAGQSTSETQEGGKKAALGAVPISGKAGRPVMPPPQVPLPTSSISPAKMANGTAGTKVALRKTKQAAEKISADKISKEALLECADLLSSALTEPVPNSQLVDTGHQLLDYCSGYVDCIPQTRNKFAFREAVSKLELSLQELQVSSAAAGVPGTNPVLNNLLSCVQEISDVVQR
T6 sequence (Q9H1R3 whole entry): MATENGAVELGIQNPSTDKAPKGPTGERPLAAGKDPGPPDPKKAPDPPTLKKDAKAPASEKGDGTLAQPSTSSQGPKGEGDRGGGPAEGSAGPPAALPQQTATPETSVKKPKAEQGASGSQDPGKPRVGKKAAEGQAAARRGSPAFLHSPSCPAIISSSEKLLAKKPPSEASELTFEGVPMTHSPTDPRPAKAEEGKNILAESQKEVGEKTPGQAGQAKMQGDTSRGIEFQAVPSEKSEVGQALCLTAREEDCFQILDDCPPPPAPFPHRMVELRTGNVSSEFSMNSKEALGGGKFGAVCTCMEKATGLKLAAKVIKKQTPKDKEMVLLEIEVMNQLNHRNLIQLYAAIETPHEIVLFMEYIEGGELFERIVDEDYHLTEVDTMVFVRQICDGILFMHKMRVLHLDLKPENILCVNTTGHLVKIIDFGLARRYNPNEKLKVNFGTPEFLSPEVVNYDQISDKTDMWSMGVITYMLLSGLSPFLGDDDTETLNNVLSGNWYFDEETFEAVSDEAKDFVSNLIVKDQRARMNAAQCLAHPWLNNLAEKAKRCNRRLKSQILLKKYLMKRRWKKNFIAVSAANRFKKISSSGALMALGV
T4 sequence (O94921 whole entry): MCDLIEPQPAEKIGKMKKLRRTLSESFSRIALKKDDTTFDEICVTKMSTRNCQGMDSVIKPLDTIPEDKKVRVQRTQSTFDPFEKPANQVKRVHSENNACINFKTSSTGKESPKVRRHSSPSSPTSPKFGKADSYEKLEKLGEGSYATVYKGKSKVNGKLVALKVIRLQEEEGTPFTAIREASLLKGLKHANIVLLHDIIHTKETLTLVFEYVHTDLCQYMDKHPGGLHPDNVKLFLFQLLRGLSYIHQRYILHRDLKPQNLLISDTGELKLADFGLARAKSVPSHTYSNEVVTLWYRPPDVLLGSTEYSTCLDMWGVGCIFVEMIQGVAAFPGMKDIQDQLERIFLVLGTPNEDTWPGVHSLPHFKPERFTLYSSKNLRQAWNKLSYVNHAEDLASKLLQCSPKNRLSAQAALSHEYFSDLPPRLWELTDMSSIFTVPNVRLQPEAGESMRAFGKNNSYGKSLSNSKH

CNc1nc(Nc2ccc(S(=O)(=O)N3CCC(N4CCOCC4)CC3)cc2OC)nc2[nH]cc(Cl)c12 [Compound 12, 5-chloro-N2-(2-methoxy-4-((4-morpholinopiperidin-1-yl)sulfonyl)phenyl)-N4-methyl-7H-pyrrolo[2,3-d]pyrimidine-2,4-diamine]
remaining binding at 1 µM (panel of 468 kinases [1]): 100%
remaining binding at 1 µM (panel of 468 kinases [2]): 67%
remaining binding at 1 µM (panel of 468 kinases [3]): 76%
remaining binding at 1 µM (panel of 468 kinases [4]): 75%
remaining binding at 1 µM (panel of 468 kinases [5]): 98%
remaining binding at 1 µM (panel of 468 kinases [6]): 100%
remaining binding at 1 µM (panel of 468 kinases [7]): 78%
remaining binding at 1 µM (panel of 468 kinases [8]): 100%

CNc1nc(Nc2ccc(C(=O)N3CCC(N4CCOCC4)CC3)c3c2OCO3)nc2[nH]cc(Cl)c12 [Compound 75, (7-((5-chloro-4-(methylamino)-7H-pyrrolo[2,3-d]pyrimidin-2-yl)amino)benzo[d][1,3]dioxol-4-yl)(4-morpholinopiperidin-1-yl)methanone]
remaining binding at 1 µM (panel of 468 kinases [1]): 2.8%
remaining binding at 1 µM (panel of 468 kinases [2]): 79%
remaining binding at 1 µM (panel of 468 kinases [3]): 89%
remaining binding at 1 µM (panel of 468 kinases [4]): 91%
remaining binding at 1 µM (panel of 468 kinases [5]): 47%
remaining binding at 1 µM (panel of 468 kinases [6]): 86%
remaining binding at 1 µM (panel of 468 kinases [7]): 100%
remaining binding at 1 µM (panel of 468 kinases [8]): 100%

CNc1nc(Nc2ccc(P3(=O)CCN(C4CCOCC4)CC3)cc2OC)nc2[nH]cc(Cl)c12 [Compound 77, 4-(4-((5-chloro-4-(methylamino)-7H-pyrrolo[2,3-d]pyrimidin-2-yl)amino)-3-methoxyphenyl)-1-(tetrahydro-2H-pyran-4-yl)-1,4-azaphosphinane 4-oxide]
remaining binding at 1 µM (panel of 468 kinases [1]): 95%
remaining binding at 1 µM (panel of 468 kinases [2]): 84%
remaining binding at 1 µM (panel of 468 kinases [3]): 98%
remaining binding at 1 µM (panel of 468 kinases [4]): 100%
remaining binding at 1 µM (panel of 468 kinases [5]): 89%
remaining binding at 1 µM (panel of 468 kinases [6]): 100%
remaining binding at 1 µM (panel of 468 kinases [7]): 100%
remaining binding at 1 µM (panel of 468 kinases [8]): 94%
